Laboratory results: patent US10500222B2, “Compositions and methods relating to treatment of infection” (Wayne State University, priority 2015, dated 2019)
Entries after “also recorded” stand apart in the source; their conditions may differ.

Tests used:
Format in all cases: in vivo, C57BL/6 (B6) mice
[1] = tested on: P. aeruginosa KEI 1025 infected cornea; assay: Ocular response to bacterial infection (clinical score, slit lamp), KEI 1025 keratitis; conditions: for opacity, slit lamp photographs / clinical scores: vs PBS
From the text: P. aeruginosa strains, KEI 1025, a non-cytotoxic clinical isolate strain expressing exoT and exoS, and not expressing exoU, described in Estrellas P S, Jr., et al., Curr Eye Res. 2000; 20:157-165 (obtained from Kresge Eye Institute, Detroit, Mich.), and a cytotoxic strain, 19660, expressing exoU, described in Finck-Barbancon V, et al., Mol Microbiol. 1997; 25:547-557; and Fleiszig S M, et al., Infect Immun. 1997; 65:579-586 (obtained from American Type Culture Collection, ATCC, Manassas, Va.), were grown in peptone tryptic soy broth (PTSB) medium in a rotary shaker water bath at 37° C. and 150 rpm for 18 h to an optical density (measured at 540 nm) between 1.3-1.8. Bacterial cultures were pelleted by centrifugation at 5,500 g for 10 min. Pellets were washed once with sterile saline, re-centrifuged, re-suspended and diluted in sterile saline. Anesthetized (using anhydrous ethyl ether) mice were placed beneath a stereoscopic microscope at 40× magnification. The left cornea was scarified with three 1-mm incisions using a sterile 25^5/8 gauge needle. The wounded corneal surface was topically treated with 5 μl containing 1×10^7 CFU/μl (KEI 1025) or 1×10^6 CFU/μl (ATCC strain 19660) of the P. aeruginosa suspension.
An established corneal disease grading scale, described in detail in Hazlett L D, et al., Invest Ophthalmol Vis Sci. 1987; 28:1978-1985, was used to assign a clinical score value to each infected eye at 1, 3 and 5 days post infection (p.i.). Clinical scores were designated as: 0=clear or slight opacity, partially or fully covering the pupil; +1=slight opacity, fully covering the anterior segment; +2=dense opacity, partially or fully covering the pupil; +3=dense opacity, covering the entire anterior segment; and +4=corneal perforation or phthisis. Clinical scores were used to statistically compare disease severity and were accompanied by photographs using a slit lamp (5 days p.i.) to confirm and illustrate the response.
(§1) The left eyes of B6 mice (n=5/group/time) were injected with 5 μl of 2 μg/μl glycyrrhizin (GLY) (Sigma-Aldrich, St. Louis, Mo.) or PBS (control) subconjunctivally, one day before infection. Similar treatment was done using carbenoxolone (CBX) (Sigma-Aldrich, St. Louis, Mo.). All mice were injected intraperitoneally (IP) at 1 and 3 days p.i. with 100 μl of GLY (2 μg/μl) or CBX (1 μg/μl). PBS served as control for all these experiments. In a separate similar experiment mice were treated one day before infection with GLY subconjunctivally and injected intraperitoneally (i.p.) with GLY plus recombinant (r) HMGB1 (1 μg/100 μl) or GLY plus PBS. IP injections were similarly given at 1 and 3 days p.i. In an additional experiment, KEI 1025 infected B6 mice were treated with 5 μl of 2 μg/μl GLY subconjunctivally at 6 hours p.i. and injected intraperitoneally at 1 and 3 days p.i. with 100 μl of GLY (2 μg/μl).

[2] = tested on: mRNA levels in P. aeruginosa KEI 1025 infected cornea; assay: Real time RT-PCR of cornea, KEI 1025 infection
Protocol: as §1
KEI 1025 or ATCC strain 19660 infected GLY or PBS treated mice were sacrificed at 5 days p.i. and the normal, contralateral (uninfected) and infected cornea was harvested. For each cornea, total RNA was isolated (RNA STAT-60™; Tel-Test, Friendswood, Tex.) according to the manufacturer's instructions. Upon spectrophotometric quantification at 260 nm, 1 μg of each RNA sample was reverse transcribed using Moloney-murine leukemia virus (M-MLV) reverse transcriptase (Invitrogen, Carlsbad, Calif.) to produce a cDNA template for the PCR reaction. cDNA products were diluted 1:25 with diethylpyrocarbonate (DEPC)-treated water. A 2 μl aliquot of diluted cDNA was used for the real-time RT-PCR reaction with Real-Time SYBR® Green/Fluorescein PCR Master Mix (Bio-Rad) and primer concentrations of 10 μM (total 10 μl reaction volume). After a pre-programmed hot start cycle (3 min at 95° C.), the parameters used for PCR amplification were: 15 sec at 95° C. and 60 sec at 60° C. with the cycles repeated 45 times. Optimal conditions for PCR amplification of cDNA were established using routine methods. mRNA levels of HMGB1, RAGE, IL-1β, TLR2, TLR4, CXCL2, TNF-α, NLR family pyrin domain containing 3 (NLRP3), NLR family CARD domain containing 4 (NLRC4), IL-12, TGF-β, IL-10, single Ig IL-1-related receptor (SIGIRR) and interleukin 1 receptor-like 1 (ST2) were tested by real-time RT-PCR (CFX Connect™ Real-Time PCR Detection System; Bio-Rad, Richmond, Calif.). The fold differences in gene expression were calculated after normalization to β-actin and expressed as the relative mRNA concentration+SEM.

[3] = tested on: P. aeruginosa KEI 1025 infected cornea; assay: Histopathology of eyes infected with KEI 1025; conditions: vs PBS
Protocol: as §1
Whole eyes infected with KEI 1025 (n=3/group/time) were enucleated from GLY or PBS treated B6 mice at 3 and 5 days p.i. Eyes were immersed in PBS, rinsed, and fixed in 1% osmium tetroxide, 2.5% glutaraldehyde, and 0.2 M Sorenson's phosphate buffer (pH 7.4) (1:1:1) at 4° C. for 3 h. Eyes were rinsed with 0.1 M phosphate buffer, dehydrated in graded ethanols and propylene oxide, and then infiltrated and embedded in Epon-araldite. Thick sections (1.5 μm) were cut, stained with Richardson's stain, observed, and photographed (Leica DM4000B, Leica Microsystems, Inc.).
The left eyes of B6 mice (n=5/group/time) were infected as above with Pseudomonas KEI 1025 strain. These infected B6 mice were treated by topical administration of GLY. Pseudomonas aeruginosa infected left cornea received 5 μL of GLY (20 μg/μL) topically beginning 6 (or 8) hours post infection and continued 2× daily for days 1-4 post infection.

[4] = subconj. 1 day before infection + IP 1 and 3 days p.i., 5 days p.i.
[5] = KEI 1025, pretreatment subconj. + IP, infected cornea 5 days p.i., vs PBS

CC1(C)[C@@H](O[C@H]2O[C@H](C(=O)O)[C@@H](O)[C@H](O)[C@H]2O[C@@H]2O[C@H](C(=O)O)[C@@H](O)[C@H](O)[C@H]2O)CC[C@]2(C)[C@H]3C(=O)C=C4[C@@H]5C[C@@](C)(C(=O)O)CC[C@]5(C)CC[C@@]4(C)[C@]3(C)CC[C@@H]12 [GLY, glycyrrhizin]
opacity, slit lamp photographs ([1]; post treatment: subconj. 6 hours p.i. + IP 1 and 3 days p.i.): decreased opacity
clinical scores ([1]; post treatment: subconj. 6 hours p.i. + IP 1 and 3 days p.i., 1 day p.i.): seen only at 3 and 5 days p.i.
clinical scores ([1]; post treatment: subconj. 6 hours p.i. + IP 1 and 3 days p.i., 3 days p.i.): Reduced clinical scores
clinical scores ([1]; post treatment: subconj. 6 hours p.i. + IP 1 and 3 days p.i., 5 days p.i.): Reduced clinical scores
infiltrate, slit lamp photographs ([1]; pretreatment, 5 days p.i., GLY compared with CBX treated eyes): less infiltrate
clinical scores ([1]; subconj. 1 day before infection + IP 1 and 3 days p.i., 1 day p.i.): significantly less corneal disease with lower clinical scores; also recorded: reduced significantly
clinical scores ([1]; subconj. 1 day before infection + IP 1 and 3 days p.i., 3 days p.i.): significantly less corneal disease with lower clinical scores; also recorded: reduced significantly
clinical scores [1, 4]: significantly less corneal disease with lower clinical scores; also recorded: reduced significantly
opacity, slit lamp photographs [1, 4]: reduced opacity
CXCL2 mRNA levels [2, 5]: reduced
HMGB1 mRNA levels [2, 5]: significantly reduced; also recorded: significantly decreased
IL-1β mRNA levels [2, 5]: significantly reduced
IL-10 mRNA levels [2, 5]: reduced
IL-12 mRNA levels [2, 5]: only GLY reduced
NLRC4 mRNA levels [2, 5]: only GLY reduced
NLRP3 mRNA levels [2, 5]: reduced
RAGE mRNA levels [2, 5]: reduced RAGE mRNA levels (FIG. 2B) when compared with PBS but not significantly
ST2 mRNA levels [2, 5]: reduced
TGF-β mRNA levels [2, 5]: reduced
TLR2 mRNA levels [2, 5]: significantly reduced
TLR4 mRNA [2, 5]: reduced
TNF-α mRNA levels [2, 5]: reduced by both GLY and CBX, but only GLY (p<0.01) was significant
mRNA levels of the other molecules tested ([2]; normal (uninfected) corneas, among PBS, CBX, GLY groups): no differences
RAGE mRNA levels ([2]; normal (uninfected) corneas, vs PBS): significantly reduced
histopathology: cellular infiltrate, corneal destruction ([3]; pretreatment subconj. + IP, 3 days p.i.): markedly reduced cellular infiltrate; also recorded: reduced corneal destruction and infiltrate
histopathology: cellular infiltrate, damage to the cornea ([3]; pretreatment subconj. + IP, 5 days p.i.): markedly reduced cellular infiltrate; also recorded: reduced damage to the cornea and a decreased cellular infiltrate
histopathology: damage to the cornea, cellular infiltrate ([3]; topical GLY from 6 hours p.i. and days 1-4 twice each day, 5 days p.i.): reduced damage to the cornea and a decreased cellular infiltrate
